According to patent US5399696A, “Isoquinolinyl compounds which are intermediates” (Eli Lilly and Company, priority 1993, dated 1995):

Legend:
[1] = tested on: AMPA receptor; settings: cited: Sheardown et al.; Buchan et al.; LePeillet et al.; cited from earlier work
[2] = molecular target: NMDA receptor; assay: Radioligand binding: displacement of [^3 H]CGS19755 from synaptosomal membranes of rat forebrain (NMDA receptor affinity); settings: [^3 H]CGS19755 10 nM, mean ± standard error (n = 3), values marked ^c single experiment
Procedure: (§1) The formula I compounds were tested for their ability to inhibit NMDA, AMPA, and kainic acid receptor binding to rat membranes in a radioligand binding assay using [^3 H]CGS19755, [^3 H]AMPA, and [^3 H]KA. For all radioligand binding assays, male Sprague-Dawley rats were used. […] Non-specific binding was determined using 10 μM L-glutamate. Samples were incubated in an ice-bath for 30 minutes, and bound ligand was separated from the free ligand by rapid filtration through WHATMAN GF/B glass fiber filters. Murphy et al, British J. Pharmacol., 95, 932-938 (1988). Kainate binding was performed using washed synaptosomal membranes from the rat forebrain as described by Simon et al. Simon et al, J. Neurochem., 26, 141-147 (1976). Tritiated kainate (5 nM) was added to 50 mM Tris-HCl buffer (pH 7.4 at 4° C.) containing 200-300 μg/ml of tissue protein. Samples were incubated for 30 minutes in an ice-bath, then rapidly filtered using a Brandel cell harvester and WHATMAN GF/C filters. Filters were washed twice with 3 ml of cold buffer. Non-specific binding was determined using 100 μM non-labeled kainate. The binding of [^3 H]AMPA (5 nM) was conducted with crude membranes of rat forebrain in the presence of 100 mM KSCN as described by Nielson et al. Nielson et al, Eur. J. Med. Chem. Chim. Ther., 21, 433-437 (1986). Non-specific binding was determined with 10 μM non-labeled AMPA. The concentration of the formula I compound that inhibited 50% binding (IC50, mean ±standard error, n=3) as calculated by linear regression of displacement data transformed to the Hill equation as described by Bennett. Bennett, Neurotransmitter Receptor Binding, 57-90 (1978).

[3] = molecular target: AMPA receptor; assay: Radioligand binding: [^3 H]AMPA binding with crude membranes of rat forebrain
Procedure: as §1

[4] = molecular target: kainic acid (KA) receptor; assay: Radioligand binding: tritiated kainate binding with washed synaptosomal membranes from the rat forebrain; settings: tritiated kainate 5 nM, pH 7.4, mean ± standard error (n = 3), values marked ^c single experiment
Procedure: as §1

[5] = tested on: NMDA receptor; assay: Antagonism of NMDA-induced depolarization of rat cortical wedges; format: cell-based; settings: NMDA 40 μM, mean ± standard error (n = 3), read-out: IC50 NMDA, antagonism of cortical wedge depolarization
Procedure: (§2) The depolarization of rat cortical wedges was used to test the selectivity and potency of the formula I compounds as AMPA antagonists using a technique similar to that described by Harrison and Simmonds. Harrison and Simmonds, Bri. J. Pharmacol., 84, 381-391 (1984). Generally, 4-ml aliquots of NMDA (40 μM), AMPA (40 μM), and kainate (10 μM) were superfused (2 ml/min.) on the grey matter at intervals of 15-20 minutes until stable responses were attained. The tissue was then exposed for 15 minutes to various concentrations of the formula I compounds before retesting the agonists. The IC50 values were calculated from linear regression of log dose-response curves, each point the mean of at least three observations on separate slices from more than one animal.

[6] = tested on: AMPA receptor; assay: Antagonism of AMPA-induced depolarization of rat cortical wedges; format: cell-based
Procedure: as §2

[7] = tested on: kainic acid (KA) receptor; assay: Antagonism of kainate-induced depolarization of rat cortical wedges; format: cell-based; settings: kainate 10 μM, mean ± standard error (n = 3)
Procedure: as §2

[8] = tested on: AMPA receptor; settings: cited: LaPeillet et al.; cited from earlier work
[9] = Table I, racemic, [^3 H]AMPA 5 nM, 100 mM KSCN, mean ± standard error (n = 3), values marked ^c single experiment, read-out: IC50 AMPA, receptor binding
[10] = Table III; racemic; AMPA 40 μM; mean ± standard error (n = 3); read-out: IC50 AMPA, antagonism of cortical wedge depolarization
[11] = text summary of Table I, racemic, read-out: selectively displaced ^3 H-AMPA with IC50 values
[12] = Table III; cortical wedge; racemic
[13] = Table II, enantiopure, [^3 H]AMPA 5 nM, 100 mM KSCN, mean ± standard error (n = 3), values marked ^c single experiment, read-out: IC50 AMPA, receptor binding

Structure (SMILES): NS(=O)(=O)c1cccc2c1c([N+](=O)[O-])cc1nc(O)c(O)nc12 [NBQX, 2,3-dihydroxy-6-nitro-7-sulfamoylbenzo[f]quinoxaline]
- prevention of global and focal ischemic damage (in words) [1]: effective in preventing global and focal ischemic damage

Structure (SMILES): O=C(O)CC[C@H]1CC[C@H]2CN[C@H](C(=O)O)C[C@H]2C1 (racemic) [Compound 11, (3SR,4aRS,6RS,8aRS)-6-(2-Carboxyethyl)-decahydroisoquinoline-3-carboxylic Acid]
- IC50 ([2]; Table I, racemic): 43.9 ± 4.1 µM
- IC50 [3, 9]: 27.8 ± 0.6 µM
- IC50 KA, receptor binding ([4]; Table I, racemic): > 100 µM
- IC50 ([5]; Table III, racemic): 57 ± 4.4 µM
- IC50 [6, 10]: 42 ± 6.5 µM
- IC50 KA, antagonism of cortical wedge depolarization ([7]; Table III, racemic): > 100 µM

Structure (SMILES): O=C(O)[C@@H]1C[C@H]2C[C@@H](CSc3ncn[nH]3)CC[C@H]2CN1 (racemic) [Compound 14, (3SR,4aRS,6SR,8aRS)-6-[2-(1(2-4)H-1,2,4-Triazol-5-yl)-2-thiaethyl]decahydroisoquinoline-3-carboxylic Acid]
- IC50 ([2]; Table I, racemic): > 10 µM
- IC50 [3, 9]: > 10 µM
- IC50 KA, receptor binding ([4]; Table I, racemic): > 10 µM
- IC50 ([5]; Table III, racemic): > 100 µM
- IC50 [6, 10]: 68.8 ± 12.3 µM
- IC50 KA, antagonism of cortical wedge depolarization ([7]; Table III, racemic): > 100 µM

Structure (SMILES): O=C(O)[C@@H]1C[C@H]2C[C@@H](C(Cc3nn[nH]n3)c3ccccc3)CC[C@H]2CN1 (stereo partly drawn) [Compound 19, (3SR,4aRS,6RS,8aRS)-6-[2-(1(2)H-Tetrazole-5-yl)-1-phenylethyl]decahydroisoquinoline-3-carboxylic Acid]
- IC50 ([2]; Table I, racemic): 13.8 µM
- IC50 [3, 9]: 6.58 µM
- IC50 [3, 11]: < 15 µM
- IC50 KA, receptor binding ([4]; Table I, racemic): > 100 µM
- IC50 ([5]; Table III, racemic): 100 µM
- selective AMPA receptor antagonism (in words) [6, 12]: selective AMPA receptor antagonists
- IC50 [6, 10]: 9 ± 2.8 µM
- IC50 KA, antagonism of cortical wedge depolarization ([7]; Table III, racemic): 23.6 ± 5.6 µM

Structure (SMILES): O=C(O)[C@@H]1C[C@H]2C[C@H](CSc3nn[nH]n3)CC[C@H]2CN1 [Compound 25, (3S,4aR,6R,8aR)-6[2(1(2)H-Tetrazole-5-yl)-2-thiaethyl]decahydroisoquinoline-3-carboxylic Acid]
- IC50 ([2]; Table II, enantiopure): > 100 µM
- IC50 [3, 13]: 17.8 µM
- IC50 KA, receptor binding ([4]; Table II, enantiopure): 27.9 µM
- IC50 ([5]; Table IV, enantiopure): > 100 µM
- IC50 ([6]; Table IV; enantiopure; AMPA 40 μM; mean ± standard error (n = 3); read-out: IC50 AMPA, antagonism of cortical wedge depolarization): 9 ± 0.8 µM
- IC50 KA, antagonism of cortical wedge depolarization ([7]; Table IV, enantiopure): 29.1 ± 4.3 µM

Structure (SMILES): O=C(O)[C@@H]1C[C@H]2C[C@@H](CCc3nn[nH]n3)CC[C@H]2CN1 [Compound 21, (3S,4aR,6R,8aR)-(-)-6-[2-(1(2)H-Tetrazole-5-yl)ethyl]decahydroisoquinoline-3-carboxylic Acid]
- IC50 ([2]; Table II, enantiopure): 12.1 ± 2 µM
- IC50 [3, 13]: 1.35 ± 0.13 µM
- IC50 KA, receptor binding ([4]; Table II, enantiopure): 28.1 ± 1.7 µM
- IC50 ([5]; Table IV, enantiopure): < 100 µM
- IC50 ([6]; read-out: IC50 AMPA, antagonism of cortical wedge depolarization; Table IV; enantiopure; AMPA 40 μM; mean ± standard error (n = 3)): 1.78 ± 0.23 µM
- IC50 KA, antagonism of cortical wedge depolarization ([7]; Table IV, enantiopure): < 100 µM

Structure (SMILES): O=C(O)[C@@H]1C[C@H]2C[C@H](CCS(=O)(=O)O)CC[C@H]2CN1 (racemic) [Compound 12, (3SR,4aRS,6RS,8aRS)-6-(2-Sulfoethyl)decahydroisoquinoline-3-carboxylic Acid]
- IC50 ([2]; Table I, racemic): 61.8 µM
- IC50 [3, 9]: 11.1 µM
- IC50 KA, receptor binding ([4]; Table I, racemic): > 100 µM
- IC50 ([5]; Table III, racemic): > 100 µM
- IC50 [6, 10]: 31.4 ± 1.7 µM
- IC50 KA, antagonism of cortical wedge depolarization ([7]; Table III, racemic): 100 µM

Structure (SMILES): CC1=NN=C(c2ccc(N)cc2)c2cc3c(cc2C1)OCO3 [GKYI 52466]
- neuroprotection in rat global ischemia (in words) [8]: effective neuroprotective agent in rat global ischemia models

Structure (SMILES): O=C(O)[C@@H]1C[C@H]2C[C@@H](C=Cc3nsnc3O)CC[C@H]2CN1 (racemic) [Compound 20, (3SR,4aRS,6SR,8aRS)-6-[2-(3-Hydroxy-1,2,5-thiadiazole-4-yl)ethenyl]decahydroisoquinoline-3-carboxylic Acid]
- IC50 ([2]; Table I, racemic): > 100 µM
- IC50 [3, 9]: 83.4 µM
- IC50 KA, receptor binding ([4]; Table I, racemic): > 100 µM
- IC50 ([5]; Table III, racemic): > 100 µM
- IC50 [6, 10]: 100 µM
- IC50 KA, antagonism of cortical wedge depolarization ([7]; Table III, racemic): > 100 µM

Structure (SMILES): O=C(O)[C@@H]1C[C@H]2C[C@@H](CSc3nnn[nH]3)CC[C@H]2CN1 (racemic) [Compound 4, (3SR,4aRS,6SR,8aRS)-6-[2-(1(2)H-Tetrazole-5-yl)-2-thiaethyl]decahydroisoquinoline-3-carboxylic Acid]
- IC50 ([2]; Table I, racemic): 29.4 ± 6.8 µM
- IC50 [3, 9]: 0.9 ± 0.14 µM
- IC50 [3, 11]: < 15 µM
- IC50 KA, receptor binding ([4]; Table I, racemic): 30.1 ± 1.6 µM
- IC50 ([5]; Table III, racemic): > 100 µM
- selective AMPA receptor antagonism (in words) [6, 12]: selective AMPA receptor antagonists
- IC50 [6, 10]: 3.3 ± 0.9 µM
- IC50 KA, antagonism of cortical wedge depolarization ([7]; Table III, racemic): > 100 µM

Structure (SMILES): O=C(O)[C@@H]1C[C@H]2C[C@@H](CCc3cc(O)no3)CC[C@H]2CN1 (racemic) [Compound 13, (3SR,4aRS,6RS,8aRS)-6-[2-(3-Hydroxyisoxazole-5-yl)ethyl]decahydroisoquinoline-3-carboxylic Acid]
- IC50 ([2]; Table I, racemic): > 100 µM
- IC50 [3, 9]: 13.8 ± 1.24 µM
- IC50 [3, 11]: < 15 µM
- IC50 KA, receptor binding ([4]; Table I, racemic): > 100 µM
- IC50 ([5]; Table III, racemic): > 100 µM
- selective AMPA receptor antagonism (in words) [6, 12]: selective AMPA receptor antagonists
- IC50 [6, 10]: 16.5 ± 2.7 µM
- IC50 KA, antagonism of cortical wedge depolarization ([7]; Table III, racemic): > 100 µM

Structure (SMILES): O=C(O)[C@@H]1C[C@H]2C[C@@H](CCSc3nnn[nH]3)CC[C@H]2CN1 (racemic) [Compound 9, (3SR,4aRS,6SR,8aRS)-6-[3-(1(2)H-Tetrazole-5-yl)-3-thiaprop-1-yl]decahydroisoquinoline-3-carboxylic Acid]
- IC50 ([2]; Table I, racemic): > 100 µM
- IC50 [3, 9]: 56.2 ± 4.6 µM
- IC50 KA, receptor binding ([4]; Table I, racemic): > 100 µM
- IC50 ([5]; Table III, racemic): > 100 µM
- IC50 [6, 10]: 32.2 ± 1.7 µM
- IC50 KA, antagonism of cortical wedge depolarization ([7]; Table III, racemic): > 100 µM
